Measured values taken from patent publication US8865901B2, “Gain-of-function Bcl-2 inhibitors” (priority 2009, dated 2014).
pEC50, pIC50: −log10 of the molar value. Several values for one entry are separate records, joined by “and”; a condition that tells them apart may be missing. Equal values may be shown once. Read-outs that look alike come from different tables or passages of the source.

What was measured:
[1] = system: TAMH cells transfected with Neo vector (Neo); test: Cytotoxicity / apoptosis induction in TAMH cells transfected with Neo vector; format: cell-based; settings: for pIC50: read-out: IC50 TAMH Neo
Method: (§1) To examine the sensitivity of cells over-expressing Bcl-xL to various mitochondrial inhibitors and apoptosis inducers, cell lines over-expressing Bcl-xL were prepared and tested according to Hockenberry et al. U.S. Pat. No. 7,241,804, hereby incorporated by reference in its entirety. Competitive binding of compounds with fluorescent antimycin A3, and competitive binding of compounds with BH3 peptide and Bcl-2. Competitive binding of compounds with BH-3 peptide were also measured using Bcl-xL as previously described. Id.
(§2) Cell lines were grown in RPMI 1640 medium (Gibco, Grand Island, N.Y.) supplemented with 5% fetal bovine serum (Hyclone, Logan, Utah). Also shown is the ratio of TAMH cells expressing Bcl-xL to those expressing A142L (WT:142L). The assay measures the potency of various compounds with respect to inducing apoptosis in these cells.
(§3) The compounds described in Example 2 were tested for their ability to inhibit Bcl-2 gain-of-function in TAMH cells, TAMH cells overexpressing […] (TAMH-Bcl-xL), TAMH cells transfected with Neo vector (Neo), TAMH cells over expressing a variant of Bcl-xL (A142L) using the methods of Example 1. 3-6.
(§4) The effects of the compounds described in Example 8 on TAMH cells, TAMH cells overexpressing Bcl-xL (TAMH-Bcl-xL), TAMH cells transfected with Neo vector (Neo), TAMH cells over expressing a variant of Bcl-xL (A142L) is shown in Table 8
(§5) The effects of the compounds described in Example 10 on TAMH cells, TAMH cells overexpressing Bcl-xL (TAMH-Bcl-xL), TAMH cells transfected with Neo vector (Neo), TAMH cells over expressing a variant of Bcl-xL (A142L) is shown in the following Table 10

[2] = system: TAMH cells overexpressing Bcl-xL (TAMH-Bcl-xL, Tabx2s); test: Cytotoxicity / apoptosis induction in TAMH cells overexpressing Bcl-xL; format: cell-based; settings: for Neo/Bcl-xL: selectivity ratio
Method: as §1, §2, §3, §4, §5

[3] = Table 5, TAMH Neo cells, read-out: Neo EC50
[4] = Table 5, TAMH cells overexpressing Bcl-xL (Tabx2s), read-out: 2S EC50
[5] = Table 10, read-out: IC50 TAMH Bcl-XL
[6] = Table 13, read-out: IC50 TAMH Bcl-xL

Row | Compound | pIC50 ([1]; Table 10) | Fold Select. (Neo/Bcl-XL) ([2]; Table 10) | pIC50 [2, 5] | further results
1 | COc1ccc(C)cc1Cc1cc(C)cc(Cc2cc(C)ccc2O)c1OC [Compound 0036] | – | – | – | pEC50 [1, 3]: 4.76; pEC50 [2, 4]: 5.72
2 | Cc1cc(Cc2cc(Br)ccc2O)c(O)c(Cc2cc(Br)ccc2O)c1 [Compound 0039] | – | – | – | pEC50 [1, 3]: 5.54; pEC50 [2, 4]: 6.15
3 | O=[N+]([O-])c1ccc(S(=O)(=O)c2ccccc2)c2nonc12 [Compound 0219] | – | – | – | pEC50 ([2]; Table 6, TAMH cells overexpressing Bcl-xL (Tabx2s), read-out: 2S EC50): 5.12
4 | O=C(/N=C/c1cc(Br)cc(Br)c1O)c1ccc(C(F)(F)F)cn1 [Compound 0298] | – | – | – | pEC50 ([1]; Table 3, TAMH Neo cells, read-out: Neo EC50): 4.89; pEC50 ([2]; Table 3, TAMH cells overexpressing Bcl-xL (Tabx2s), read-out: 2S EC50): 5.64
5 | Oc1ccc(Br)cc1Sc1cc(Br)ccc1O [Compound 1049] | 5.38 | 2.2 | 5.72 | –
6 | O=S(=O)(c1cc(Br)ccc1O)c1cc(Br)ccc1O [Compound 1050] | 4.98 | 2.8 | 5.42 | –
7 | CC(C)(C)c1ccc(O)c(Sc2cc(C(C)(C)C)ccc2O)c1 [Compound 2855] | – | – | – | Fold Select. (Neo/Bcl-XL) ([2]; Table 11): 0
8 | Oc1ccc(Cl)cc1Sc1cc(Cl)ccc1O [Compound 4112] | 5.33 | 2.3 | 5.70 | –
9 | CC(=O)Nc1ccc(Sc2ccc(NC(C)=O)cc2O)c(O)c1 [Compound 4581] | – | – | – | Fold Select. (Neo/Bcl-XL) ([2]; Table 11): 0
10 | O=C(c1cc(Br)ccc1O)c1cc(Br)ccc1O [Compound 4631] | 4.85 | 1.7 | 5.07 | –
11 | Cc1c(Cl)cc(C(C)(C)C)c(O)c1Cc1c(C)c(Cl)cc(C(C)(C)C)c1O [Compound 5857] | 4.90 | 2.8 | 5.35 | –
12 | Oc1ccc2ccccc2c1Cc1c(O)ccc2ccccc12 [Compound 5992] | 4.91 and 5.10 | – | 5.52 and 5.36 | –
13 | Cc1cc(Cc2cc(C)c(N)cc2N)c(N)cc1N [Compound 7215] | – | – | – | Fold Select. (Neo/Bcl-XL) ([2]; Table 11): 0
14 | Cc1cc(Cc2cc(C)cc(C(C)(C)C)c2O)c(O)c(C(C)(C)C)c1 [Compound 7781] | 5.35 | 2.8 | 5.80 | –
15 | CCc1cc(Cc2cc(CC)cc(C(C)(C)C)c2O)c(O)c(C(C)(C)C)c1 [Compound 7782] | 5.46 | 1.7 | 5.68 | –
16 | Oc1c(Cl)cc(Cl)cc1Sc1cc(Cl)cc(Cl)c1O [Compound 9872] | 5.12 | 3.3 | 5.64 | –
17 | Cc1c(Cl)c(C)c(Sc2c(C)c(Cl)c(C)c(Br)c2O)c(O)c1Br [Compound 9874] | 5.70 | 2.8 | 6.15 | –
18 | Cc1cc(O)c(Sc2c(O)cc(C)c(Cl)c2C)c(C)c1Cl [Compound 9875] | 5.24 | 6.3 | 6.05 | –
19 | [O-][S+](c1cc(Cl)ccc1O)c1cc(Cl)ccc1O [Compound 24019] | 4.49 | 5.7 | 5.25 | –
20 | CN(C)Cc1cc(Cl)cc(Cc2cc(Cl)cc(CN(C)C)c2O)c1O.Cl [Compound 39242] | – | – | – | Fold Select. (Neo/Bcl-XL) ([2]; Table 11): 0
21 | CC(C)c1ccc(Sc2ccc(C(C)C)cc2O)c(O)c1 [Compound 39635] | 5.11 | 1.3 | 5.37 | –
22 | Oc1c(Cl)cc(Cl)cc1Sc1cc(Cl)cc(Cl)c1O [Compound 47129] | 5.64 | 4.6 | 6.30 | –

Row | Compound | pIC50 ([1]; Table 10) | Fold Select. (Neo/Bcl-XL) ([2]; Table 10) | pIC50 [2, 5] | further results
23 | Cc1cc(C)c(O)c(CNCc2ccccc2)c1 [Compound 47911] | – | – | – | pEC50 ([1]; Mus musculus, TAMH, Table 8, read-out: TANH Neo): 4.50; pEC50 ([1]; Mus musculus, TAMH, Table 20, read-out: Neo): 4.50; pEC50 ([2]; Mus musculus, TAMH, Table 8, read-out: TAMH Bcl-xL): 5.39; pEC50 ([2]; Mus musculus, TAMH, Table 20, read-out: Bcl-XL): 5.39; Neo/Bcl-xL ([2]; Table 8): 7.8; Neo/Bcl-XL ([2]; Table 20): 7.8
24 | Oc1ccc(Cl)cc1Cc1cc(Cl)cc(Cc2cc(Cl)ccc2O)c1O [Compound 47932] | – | – | – | pEC50 ([1]; Table 8, read-out: TANH Neo): 5.46; pIC50 ([1]; Table 13): 5.46; pEC50 ([2]; Table 8, read-out: TAMH Bcl-xL): 6.30; Neo/Bcl-xL ([2]; Table 8): 7; Fold Select. (Neo/Bcl-xL) ([2]; Table 13): 7; pIC50 [2, 6]: 6.30
25 | Cc1cc(C)c(O)c(Cc2cc(Cl)cc(Cc3cc(C)cc(C)c3O)c2O)c1 [Compound 48167] | – | – | – | pIC50 ([1]; Table 13): 5.25; Fold Select. (Neo/Bcl-xL) ([2]; Table 13): 4; pIC50 [2, 6]: 5.85
26 | Cc1cc(C)c(O)c(Cc2cccc(Cc3cc(C)cc(C)c3O)c2O)c1 [Compound 48168] | – | – | – | Fold Select. (Neo/Bcl-xL) ([2]; Table 13): 0
27 | Oc1c(CCl)cc(Cl)cc1Cc1cc(Cl)cc(Cc2cc(Cl)cc(CCl)c2O)c1O [Compound 48444] | – | – | – | pIC50 ([1]; Table 13): 4.92; Fold Select. (Neo/Bcl-xL) ([2]; Table 13): 9.3; pIC50 [2, 6]: 5.89
28 | OCc1cc(Cl)cc(Cc2cc(Cl)cc(Cc3cc(Cl)cc(CO)c3O)c2O)c1O [Compound 48445] | – | – | – | pIC50 ([1]; Table 13): 5.35; Fold Select. (Neo/Bcl-xL) ([2]; Table 13): 2.5; pIC50 [2, 6]: 5.74
29 | O=C(O)c1cc(Cl)cc(Cc2cc(Cl)cc(C(=O)O)c2O)c1O [Compound 48684] | – | – | – | Fold Select. (Neo/Bcl-XL) ([2]; Table 11): 0
30 | CC(=O)c1cc(Cl)cc(Cc2cc(Cl)cc(Cc3cc(Cl)cc(C(C)=O)c3O)c2O)c1O [Compound 48698] | – | – | – | pIC50 ([1]; Table 13): 5.24; Fold Select. (Neo/Bcl-xL) ([2]; Table 13): 8.1; pIC50 [2, 6]: 6.15
31 | CC(=O)c1cc(Cc2cc(C)cc(C)c2O)c(O)c(Cc2cc(C)cc(C)c2O)c1 [Compound 48705] | – | – | – | Fold Select. (Neo/Bcl-xL) ([2]; Table 13): 0
32 | CN(Cc1cc(C(C)(C)C)cc(Br)c1O)Cc1cc(C(C)(C)C)cc(Br)c1O [Compound 48881] | – | – | – | pEC50 ([1]; Table 19, read-out: Neo): 4.55; Neo/Bcl-XL ([2]; Table 19): 4.6; pEC50 ([2]; Table 19, read-out: Bcl-XL): 5.21
33 | Cc1cc(O)c(Sc2c(O)cc(C)c(Cl)c2C)c(C)c1Cl [Compound 52168] | 5.28 | 5.2 | 6.00 | –
34 | Oc1ccc(Cl)cc1Sc1cc(Cl)ccc1O [Compound 55636] | 4.83 | 7.7 | 5.72 | pEC50 ([1]; Table 8, read-out: TANH Neo): 4.83; pEC50 ([2]; Table 8, read-out: TAMH Bcl-xL): 5.72; Neo/Bcl-xL ([2]; Table 8): 7.7
35 | Cc1cc(Cc2cc(Cc3cc(C)cc(C(C)(C)C)c3O)c(C)cc2C)c(O)c(C(C)(C)C)c1 [Compound 57725] | – | – | – | Fold Select. (Neo/Bcl-xL) ([2]; Table 13): −0
36 | Cc1cc(O)c(Sc2c(O)cc(C)cc2C(C)(C)C)c(C(C)(C)C)c1 [Compound 59685] | 4.18 | 5.5 | 4.92 | –
37 | Oc1ccc(Sc2ccc(O)cc2O)c(O)c1 [Compound 59828] | – | – | – | Fold Select. (Neo/Bcl-XL) ([2]; Table 11): 0
38 | CN(C)Cc1cc(Cl)cc(Sc2cc(Cl)cc(CN(C)C)c2O)c1O [Compound 62419] | 4.44 | 1.8 | 4.70 | –
39 | Cc1cc(Cc2cc(C)cc(C(C)(C)C)c2O)c(O)c(Cc2cc(C)cc(C(C)(C)C)c2O)c1 [Compound 62914] | – | – | – | Fold Select. (Neo/Bcl-xL) ([2]; Table 13): > 20 and 22.7
40 | Cc1cc(Sc2cc(C)cc(C(C)(C)C)c2O)c(O)c(C(C)(C)C)c1 [Compound 67488] | – | 6.8 | 4.84 | –
41 | COc1ccccc1Cc1ccccc1OC [Compound 78834] | – | – | – | Fold Select. (Neo/Bcl-XL) ([2]; Table 11): 0
42 | COc1cc(C)ccc1C(=O)c1ccc(C)cc1OC [Compound 143532] | – | – | – | Fold Select. (Neo/Bcl-XL) ([2]; Table 11): 0
43 | Cc1cc(O)c(O)c(Oc2cc(C)cc(O)c2O)c1 [Compound 330927] | – | 5 | 4.70 | –
